Measured values from patent publication US20140378380A1, “USE OF UNACYLATED GHRELIN, FRAGMENTS AND ANALOGS THEREOF AS ANTIOXIDANT” (Alizé Pharma SAS, priority 2013, published 2014).
Ends that are not written are not given here. * marks the point of attachment. Octanoyl = CCCCCCCC(=O)*

What was measured:
[1] = U.S. Pat. Nos. 8,222,217 and 8,318,664; cited from earlier work
primary SCs = assay: Primary SCs from normo-perfused muscles subjected to in vitro ischemia; type: cell-based, mice
Description: (§1) SCs were isolated from gastrocnemius muscles of C57BL/6J wild type mice subjected to ischemia or C57BL/6J mice lacking the GHSR1a and ghrelin genes (10 mice, kind gift of Professor M. Tschöp)^39. To obtain SCs, muscle samples were subjected to enzymatic digestion as described^45. In selected experiments, SCs were recovered from normo-perfused muscles and subjected to in-vitro ischemia in presence of saline, AG (1 μmol/L) or UAG (1 μmol/L). In-vitro ischemia was induced by incubating cells in DMEM+2% FCS at 5% CO2/95% N2 humidified atmosphere, yielding 1% O2 concentrations for 24 h^18. The in-vitro ischemia was also performed in the presence of SB202190 (1 μmol/L).
(§2) SC cell-cycle progression was evaluated by evaluating the percentage of PCNA-positive cells or by FACS analysis as previously described^46. The percentage of cells in each cell cycle phase was determined by ModFit LT software (Verity Software House. Inc, topsham, ME, USA). Celss proliferation was also assayed by evaluating the percentage of PCNA-positive cells by FACS analysis.
(§3) Cells were lysed and protein detection was obtained as previously described^47. Cells were lysed (50 mmol/L Tris HCl [pH 8.3], 1% Triton X-100, 10 mmol/L PMSF, 100 U/ml aprotinin, 10 μmol/L leupeptin) and protein concentrations were obtained as previously described^47. […] Densitometric analysis was used to calculate the differences in the fold induction of protein levels and normalized to tubulin, a actin or p38MAPK content. Values are reported as relative amount
(§4) Intracellular ROS production was evaluated using DCF-DA (5-(and-6)-carboxy-2′,7′-dichlorofluorescein diacetate, […] final concentration) (Molecular Probe, Invitrogen) assay as previously described^23. The formation of TBARS was determined in muscles using the OXI-TEK kit (ZeptoMetrix Corp.) and a luminescence spectrometer (Bio-Rad Laboratories, Hercules, Calif.) with excitation set at 530 nm, emission at 550 nm to measure in-vivo oxidative stress levels^33.
(§5) Total RNA was isolated using TRIzol reagent (Invitrogen) from SCs recovered from muscles of treated animals or from SCs subjected to in-vitro ischemia. miR-221/222 expression was evaluated by qRT-PCR as previously described^48. Loss-of-function experiments were performed in SCs transfected for 48 h with anti-miRNA negative control, anti-miR-221/222 antagonists (Applied Biosystem, Foxter Cyto CA, USA), according to the manufacturer's instructions^48.
To obtain SOD-2 inactivation, SCs were transiently transfected with siRNA for SOD-2 or with duplex siRNAs (Qiagen, Valencia, Calif., USA) as previously described^44. Transfection was performed according to the manufacturer's instructions. Whole cell extracts were processed 48 h after transfection. Cell viability was evaluated at the end of each experiment. […]

[2] = system: C2C12 mouse muscular cell line; assay: ROS production (DCF-DA) in C2C12 cells subjected to oxidative stress; type: cell-based; conditions: for protective effect on C2C12 cells against oxidative stress: oxidative stress by hypoxia, AGEs, hyperglycemia or H2O2, 1 μmol/L; for retention of the functions of UAG: results provided herein
Description: Kinetic analysis of ROS production was evaluated by using DCF-DA (5-(and-6)-carboxy-2′,7′-dichlorofluorescein diacetate, 0.5 μmol/L final concentration) (Molecular Probe, Invitrogen) assay. C2C12 cells were cultured with 400 μg/ml Advanced Glycated End-product (AGE) or 25 mM glucose (high glucose HG) for 48 h, H2O2 (100 μM) for 2 h. In parallel experiments C2C12 cells were subjected to hypoxia (DMEM+2% FCS in a 5% CO2-95% N2 humidified atmosphere, yielding to 1% O2 concentrations for 24 h). UAG (1 μmol/L) AZP 531 (1 μmol/L) or AZP-502 (1 μmol/L) was added where indicated.

C57BL/6J mice [3] = assay: Murine hind-limb ischemia model (foot damage score, histology, IF, TBARS); type: in vivo; conditions: for capillary density, ischemic vs contralateral control muscle of the same animals: ischemic vs normo-perfused muscle; for protection against ischemia-induced damage (in vivo effects): overall conclusion; for foot damage (functional score): unilateral hind-limb ischemia, i.p. daily from day 0 to day 21, vs saline
Description: (§6) Male C57BL/6J mice (Charles River Lab., Wilmington, Mass., USA) were anesthetized and unilateral hind limb ischemia was induced as described^42. The normo-perfused contralateral limb of each mouse was used as an internal control. After hind-limb ischemia, animals (18 mice per group) were treated by intra-peritoneal injection daily from 0 to day 21 with either saline, AG ([…]) or UAG ([…]). In selected experiments, mice received intramuscular injections of pre-miR oligonucleotides (5 mice/group). To induce toxic damage, 100 μl of 1% barium chloride (BaCl2, Sigma Aldrich) was injected unilaterally into the hind limb (9 mice). Mice were treated according to European Guidelines and policies as approved by the University of Turin Ethical Committee.
Semiquantitative estimation (by repeated measures analyzed with ANOVA and Newman-Keuls Multiple Comparison test) of foot damage was performed serially using the following classification: 3=dragging of foot (foot necrosis), 2=no dragging but no plantar flexion (foot damage), 1=plantar flexion but no toe flexion (toe damage), and 0=flexing the toes to resist gentle traction on the tail (no damage)^43.
(§7) Gastrocnemius muscle sections from ischemic or normo-perfused limbs were stained with hematoxylin and eosin for histological analysis. The proportion of fibers with central nuclei (regenerating fibers) was measured by MetaMorph software (Life Sciences Research Imaging Systems) in the injured area and the cross-sectional areas of the fibers in the injured and non-injured areas. For IF analysis, muscle sections were processed as described previously^44. The number of cells expressing the indicated markers or CD31 positive vessels was evaluated as previously described^34.
as §4

SCs from double KO mice = SCs from double KO mice (lacking GHSR1a and ghrelin genes) subjected to in vitro ischemia; type: cell-based; conditions: for protection of SCs from ROS generation: DCF-DA
Description: as §1, §2, §3, §4

satellite cells (SCs) = assay: SCs recovered from ischemic muscles of treated mice (count, Western blot, DCF-DA, qRT-PCR); type: in vivo
Description: as §6, §1, §3, §4, §5

C57BL/6J mice [4] = assay: Toxic damage induced by 1% barium chloride (BaCl2) in gastrocnemius muscle; type: in vivo; conditions: 1% BaCl2 injected into hind limb
Description: as §6, §7

GHSR-1a = GHSR-1a (Homo sapiens, UniProt Q92847); conditions: cited from earlier work
GH secretion = conditions: cited from earlier work
healthy volunteers = conditions: administered concomitantly in healthy volunteers; cited from earlier work
[5] = system: endothelial progenitor cells (EPCs); conditions: cited from earlier work
[6] = SB202190 1 μmol/L added, in vitro ischemia
[7] = SOD-2 silenced using siRNA, in vitro ischemia
[8] = in vitro ischemia 1% O2 24 h, 1 μmol/L

Sequence of GHSR-1a (Q92847 whole entry): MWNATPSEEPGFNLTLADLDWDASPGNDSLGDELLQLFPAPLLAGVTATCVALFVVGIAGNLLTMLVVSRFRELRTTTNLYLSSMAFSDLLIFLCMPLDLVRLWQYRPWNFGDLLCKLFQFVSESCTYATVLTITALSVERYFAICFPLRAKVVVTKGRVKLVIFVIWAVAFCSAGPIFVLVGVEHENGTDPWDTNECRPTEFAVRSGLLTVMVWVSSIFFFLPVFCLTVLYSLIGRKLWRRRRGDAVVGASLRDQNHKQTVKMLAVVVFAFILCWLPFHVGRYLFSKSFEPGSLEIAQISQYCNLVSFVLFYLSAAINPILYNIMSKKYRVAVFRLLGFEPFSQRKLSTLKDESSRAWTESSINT

His-Gln-Arg (HQR; listed as Homo sapiens) [UAG (9-11)]
activity on glucose, insulin and lipid metabolisms relative to UAG full length [1]: retain the activity of UAG full length

Oc1ccc(-c2nc(-c3ccncc3)c(-c3ccc(F)cc3)[nH]2)cc1 [SB202190, reference compound]
MyoD and myogenin expression in SCs exposed to UAG (primary SCs; [6]): prevented MyoD and myogenin expression
cell-cycle entry of SCs exposed to UAG (primary SCs; [6]): blocked cell-cycle entry

SPEHQRVQ [UAG (6-13)]
protective effect on C2C12 cells against oxidative stress [2]: have a protective effect
retention of the functions of UAG [2]: retain the functions of UAG
activity on glucose, insulin and lipid metabolisms relative to UAG full length [1]: retain the activity of UAG full length

AG: 28 amino acid peptide characterized by the presence of an n-octanoyl modification on the Ser3 residue (GSS(Octanoyl)FLSPEHQRVQQRKESKKPPAKLQPR; UniProt Q9UBU3 24-51, looked up) [reference compound]
concentration of TBARS in ischemic muscles (C57BL/6J mice [3]; gastrocnemius muscle): Significant increases
capillary density, ischemic vs contralateral control muscle of the same animals (C57BL/6J mice [3]): significantly lower capillary density
protection against ischemia-induced damage (in vivo effects) (C57BL/6J mice [3]): failure to detect in vivo effects
foot damage (functional score) (C57BL/6J mice [3]): significantly higher
protection of SCs from ROS generation (SCs from double KO mice): unlike AG

Ser-Pro-Glu-His-Gln-Arg-Val-Gln (cycl) (SPEHQRVQ; cyclic; (1)..(8) Cyclic; listed as Homo sapiens) [UAG(6-13)cyclic]
protective effect on C2C12 cells against oxidative stress [2]: have a protective effect
retention of the functions of UAG [2]: retain the functions of UAG

EHQRVQ [UAG (8-13)]
activity on glucose, insulin and lipid metabolisms relative to UAG full length [1]: retain the activity of UAG full length

His-Gln-Arg-Val (HQRV; listed as Homo sapiens) [UAG (9-12)]
activity on glucose, insulin and lipid metabolisms relative to UAG full length [1]: retain the activity of UAG full length

Gly-Ser-Ser-Phe-Leu-Ser-Pro-Glu-His-Gln-Arg-Val-Gln-Gln-Arg-Lys-Glu-Ser-Lys-Lys-Pro-Pro-Ala-Lys-Leu-Gln-Pro-Arg (GSSFLSPEHQRVQQRKESKKPPAKLQPR; listed as Homo sapiens) [UAG]
number of Pax-7/MyoD+ cells in ischemic muscles (C57BL/6J mice [3]; day 7): increased number of Pax-7/MyoD+ cells
Pax-7/MyoD+ cells in ischemic muscles (C57BL/6J mice [3]; day 21): scattered Pax-7/MyoD+ cells were still present
number of SOD-2/Pax-7+ cells in ischemic muscle (C57BL/6J mice [3]; double immunostaining, day 7): increased number of SOD-2/Pax-7+ cells
number of CD68-positive inflammatory cells (C57BL/6J mice [3]; ischemic muscle): reduced number of CD68-positive inflammatory cells
number of regenerating myofibers in gastrocnemius muscles (C57BL/6J mice [3]; ischemic muscle): increased number of regenerating myofibers
number of myogenin-positive cells in ischemic muscles (C57BL/6J mice [3]; ischemic muscles): increased number of myogenin-positive cells
number of functional vessels in ischemic muscles (C57BL/6J mice [3]; ischemic muscles, compared to the other groups): larger number of functional vessels
capillary density, ischemic vs contralateral control muscle of the same animals (C57BL/6J mice [3]): no such differences were observed
protection against ischemia-induced damage (in vivo effects) (C57BL/6J mice [3]): appears to protect against ischemia-induced damage
foot damage (functional score) (C57BL/6J mice [3]): damage was significantly higher in saline- and AG-treated groups than in the UAG-treated group
ROS production in SCs from treated mice (satellite cells (SCs); DCF-DA assay): lower
levels of phospho(p)-p38/MAPK protein in SCs (satellite cells (SCs); SCs from treated mice, Western blot): found to be higher
SOD-2 protein expression in SCs from treated mice (satellite cells (SCs); Western blot): higher
levels of p57kip2 protein in SCs from treated mice (satellite cells (SCs); Western blot): reduced
number of Pax-7/MyoD/Myf5+ SCs isolated and counted ex vivo (satellite cells (SCs); ischemic muscles of treated mice): significantly increased number
expression of miR-221 and miR-222 in SCs recovered from muscles of treated mice (satellite cells (SCs); qRT-PCR, compared to controls): significantly increased
regeneration of skeletal muscle after BaCl2 (ROS-independent damage) (C57BL/6J mice [4]): regeneration of skeletal muscle was no longer observed
cell-cycle entry or expression of SOD-2, Pax-7, MyoD, or myogenin (primary SCs; SCs transfected with anti-miR-221/222 antago-miRs (data not shown)): no longer had any effect
p-p38/MAPK levels (primary SCs; SCs transfected with anti-miR-221/222 antago-miRs, UAG (data not shown)): p-p38/MAPK levels were reduced
UAG-induced miR-221/222 expression (primary SCs; SOD-2 knock-down, in vitro ischemia): prevents UAG-induced miR-221/222 expression
cell-cycle progression (primary SCs; [7]): did not undergo cell-cycle progression
p38/MAPK phosphorylation (primary SCs; [7]): did not induce p38/MAPK phosphorylation
protection of SCs against ROS generation (primary SCs; [7]): did not protect SCs against ROS generation
expression of Pax-7, MyoD (primary SCs; [8]): induced expression
expression of myogenin (primary SCs; [8]): induced expression
levels of pp38/MAPK (primary SCs; [8]): increased levels
ROS production (primary SCs; in vitro ischemia, DCF-DA): ROS production was decreased
PCNA expression (primary SCs; in vitro ischemia, FACS): increased PCNA expression
number of cells in S phase (primary SCs; in vitro ischemia, FACS): increased
SOD-2 expression (primary SCs; in vitro ischemia, Western blot): SOD-2 expression increased
SC cell-cycle progression (SCs from double KO mice): only UAG promoted SC cell-cycle progression
SOD-2 expression (SCs from double KO mice): induced SOD-2 expression
p-p38/MAPK, Pax-7, MyoD, Myf5 and myogenin expression (SCs from double KO mice): induced
protection of SCs from ROS generation (SCs from double KO mice): protected SCs from ROS generation
protective effect on C2C12 cells against oxidative stress [2]: have a protective effect
binding to GHSR-1a (GHSR-1a): fails to bind
effect on GH secretion (GH secretion): no physiological effect on GH secretion
hyperglycemic effects of ghrelin (healthy volunteers): prevent the hyperglycemic effects of ghrelin
protection of EPCs from oxidative stress (ROS generation) [5]: only UAG protects endothelial progenitor cells (EPCs) from oxidative stress

Glu-His-Gln-Arg (EHQR; listed as Homo sapiens) [UAG (8-11)]
activity on glucose, insulin and lipid metabolisms relative to UAG full length [1]: retain the activity of UAG full length

Glu-His-Gln-Arg-Val (EHQRV; listed as Homo sapiens) [UAG (8-12)]
activity on glucose, insulin and lipid metabolisms relative to UAG full length [1]: retain the activity of UAG full length
